This is an account of results in BindingDB's records for doi:10.1016/j.bmc.2009.04.013 (Biocryst Pharmaceuticals, 2009).

The first experiment deals with T1, Coagulation factor VII (Homo sapiens, UniProt P08709).
T1 sequence (P08709 whole entry): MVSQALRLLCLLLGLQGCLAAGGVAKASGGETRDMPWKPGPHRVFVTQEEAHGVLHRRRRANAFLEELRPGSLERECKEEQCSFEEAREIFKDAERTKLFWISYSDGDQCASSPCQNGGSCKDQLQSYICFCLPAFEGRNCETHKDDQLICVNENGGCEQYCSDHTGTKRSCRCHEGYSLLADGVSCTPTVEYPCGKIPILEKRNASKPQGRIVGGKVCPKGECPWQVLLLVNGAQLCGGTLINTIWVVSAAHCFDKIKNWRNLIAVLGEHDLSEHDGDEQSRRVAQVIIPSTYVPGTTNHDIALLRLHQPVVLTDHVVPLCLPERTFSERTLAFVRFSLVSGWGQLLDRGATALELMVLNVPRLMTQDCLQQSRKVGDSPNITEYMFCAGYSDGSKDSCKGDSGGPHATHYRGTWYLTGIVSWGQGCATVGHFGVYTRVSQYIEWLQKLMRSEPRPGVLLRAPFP
In words: TF-FVIIa Enzyme Inhibition Assay. Conditions: 25 °C.
As a reminder, the IC50 is the concentration needed to halve the response being measured. The low end stands for higher potency, the high end for lower potency. `N=C(N)c1ccc(NC(=O)c2ccccc2-c2ccccc2C(=O)O)cc1` [substituted biphenyl derivative, 9] returned an IC50 of 5.72 µM. This counts as single-digit micromolar.

Staying with this experiment, now noted: pH 7.2; 23 °C.
In the case of `CC(C)CNC(=O)c1ccc(-c2ccc(/C=C\CO)cc2C(=O)Nc2ccc(C(=N)N)cc2)c(C(=O)O)c1` [substituted biphenyl derivative, 36m], the half-inhibitory concentration (IC50) stood at 0.052 µM.

Another experiment concerns the target T2, Serine protease 1 (Bos taurus, UniProt P00760).
T2 sequence (P00760 whole entry): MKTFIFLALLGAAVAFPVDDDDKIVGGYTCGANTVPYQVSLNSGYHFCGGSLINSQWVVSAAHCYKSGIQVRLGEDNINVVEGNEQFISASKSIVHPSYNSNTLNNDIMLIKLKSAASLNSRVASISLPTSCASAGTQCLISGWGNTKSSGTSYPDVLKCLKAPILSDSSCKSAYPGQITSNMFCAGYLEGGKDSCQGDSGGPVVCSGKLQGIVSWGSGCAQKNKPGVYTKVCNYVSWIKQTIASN
In words: TF-FVIIa Enzyme Inhibition Assay. Conditions: 25 °C.
With `CC(C)CNC(=O)c1ccc(-c2ccc(-c3cscc3CN=[N+]=[N-])cc2C(=O)Nc2ccc(C(=N)N)cc2)c(C(=O)O)c1` [substituted biphenyl derivative, 36am], it took 1.18 µM to reach half-maximal inhibition (IC50). On the same count and under the same terms, the same measure for `C=C(C)c1ccc(-c2ccc(C(=O)NCC(C)C)cc2C(=O)O)c(C(=O)Nc2ccc(C(=N)N)cc2)c1` [substituted biphenyl derivative, 36g]: 0.53 µM; for `C=C(CCO)c1ccc(-c2ccc(C(=O)NCC(C)C)cc2C(=O)O)c(C(=O)Nc2ccc(C(=N)N)cc2)c1` [substituted biphenyl derivative, 36o]: 2.19 µM; for `CC(C)CNC(=O)c1ccc(-c2ccc(-c3occc3CO)cc2C(=O)Nc2ccc(C(=N)N)cc2)c(C(=O)O)c1` [substituted biphenyl derivative, 36aq]: 0.77 µM. `CC#Cc1ccc(-c2ccc(C(=O)NCC(C)C)cc2C(=O)O)c(C(=O)Nc2ccc(C(=N)N)cc2)c1` [substituted biphenyl derivative, 36i] returned an IC50 of 1.66 µM. On the same count and under the same terms, the same measure for `C=C(CO)c1ccc(-c2ccc(C(=O)NCC(C)C)cc2C(=O)O)c(C(=O)Nc2ccc(C(=N)N)cc2)c1` [substituted biphenyl derivative, 36n]: 3.54 µM; for `CC(C)CNC(=O)c1ccc(-c2ccc(-c3ccco3)cc2C(=O)Nc2ccc(C(=N)N)cc2)c(C(=O)O)c1` [substituted biphenyl derivative, 36ab]: 0.37 µM. Still for that read-out and setting: the same measure for `CC(C)CNC(=O)c1ccc(-c2ccc(-c3sccc3CO)cc2C(=O)Nc2ccc(C(=N)N)cc2)c(C(=O)O)c1` [substituted biphenyl derivative, 36aj]: 4.39 µM. For `CC(C)CNC(=O)c1ccc(-c2ccc(-c3cocc3CO)cc2C(=O)Nc2ccc(C(=N)N)cc2)c(C(=O)O)c1` [substituted biphenyl derivative, 36ap], half-maximal inhibition (IC50) was put at 2.29 µM.

In the case of `CC(C)CNC(=O)c1ccc(-c2ccc(-c3ccncc3)cc2C(=O)Nc2ccc(C(=N)N)cc2)c(C(=O)O)c1` [substituted biphenyl derivative, 36x], it took 1.21 µM to reach half-maximal inhibition (IC50). This IC50 is about 1.9-fold lower than that of the compound before.

Take `CC(C)CNC(=O)c1ccc(-c2ccc(C(O)CO)cc2C(=O)Nc2ccc(C(=N)N)cc2)c(C(=O)O)c1` (stereo not drawn) [substituted biphenyl derivative, 36s]: the IC50 amounted to 22.1 µM. As for `C/C=C\Cc1ccc(-c2ccc(C(=O)NCC(C)C)cc2C(=O)O)c(C(=O)Nc2ccc(C(=N)N)cc2)c1` [substituted biphenyl derivative, 36j], it took 1.34 µM to reach half-maximal inhibition (IC50). Still for that read-out and setting: the same measure for `C=Cc1ccc(-c2ccc(C(=O)NCC(C)C)cc2C(=O)O)c(C(=O)Nc2ccc(C(=N)N)cc2)c1` [substituted biphenyl derivative, 36b]: 0.47 µM; for `CC(C)CNC(=O)c1ccc(-c2ccc(-c3ccc[nH]3)cc2C(=O)Nc2ccc(C(=N)N)cc2)c(C(=O)O)c1` [substituted biphenyl derivative, 36ad]: 0.43 µM; for `CC(C)CNC(=O)c1ccc(-c2ccc(/C=C\CO)cc2C(=O)Nc2ccc(C(=N)N)cc2)c(C(=O)O)c1` [substituted biphenyl derivative, 36m]: 1.77 µM. On the same count and under the same terms, the same measure for `CC(C)CNC(=O)c1ccc(-c2ccc(-c3ccsc3)cc2C(=O)Nc2ccc(C(=N)N)cc2)c(C(=O)O)c1` [substituted biphenyl derivative, 36aa]: 0.38 µM. On the same count and under the same terms, the same measure for `CC(C)CNC(=O)c1ccc(-c2ccc(-c3cscc3CO)cc2C(=O)Nc2ccc(C(=N)N)cc2)c(C(=O)O)c1` [substituted biphenyl derivative, 36ak]: 0.51 µM; for `CC(C)CNC(=O)c1ccc(-c2ccc(-c3nccs3)cc2C(=O)Nc2ccc(C(=N)N)cc2)c(C(=O)O)c1` [substituted biphenyl derivative, 36af]: 1.47 µM. As to `CC(C)CNC(=O)c1ccc(-c2ccc(-c3cccn3C)cc2C(=O)Nc2ccc(C(=N)N)cc2)c(C(=O)O)c1` [substituted biphenyl derivative, 36ae], the IC50 was 0.41 µM. Still for that read-out and setting: the same measure for `CC(C)=CCc1ccc(-c2ccc(C(=O)NCC(C)C)cc2C(=O)O)c(C(=O)Nc2ccc(C(=N)N)cc2)c1` [substituted biphenyl derivative, 36k]: 0.95 µM. Turning to `C#Cc1ccc(-c2ccc(C(=O)NCC(C)C)cc2C(=O)O)c(C(=O)Nc2ccc(C(=N)N)cc2)c1` [substituted biphenyl derivative, 36f], the IC50 came out at 2.87 µM. Same read-out and setting: the same measure for `CC(C)CNC(=O)c1ccc(-c2ccc(-c3cccnc3)cc2C(=O)Nc2ccc(C(=N)N)cc2)c(C(=O)O)c1` [substituted biphenyl derivative, 36y]: 3.02 µM; for `CC(C)CNC(=O)c1ccc(-c2ccc(-c3ccoc3)cc2C(=O)Nc2ccc(C(=N)N)cc2)c(C(=O)O)c1` [substituted biphenyl derivative, 36ac]: 0.47 µM.

Consider `COc1ccc(-c2ccc(C(=O)NCC(C)C)cc2C(=O)O)c(C(=O)Nc2ccc(C(=N)N)cc2)c1` [substituted biphenyl derivative, 24], for which the IC50 amounted to 0.82 µM. Same read-out and setting: the same measure for `CC(C)CNC(=O)c1ccc(-c2ccc(-c3ccccc3)cc2C(=O)Nc2ccc(C(=N)N)cc2)c(C(=O)O)c1` [substituted biphenyl derivative, 36v]: 0.42 µM; for `CC(C)CNC(=O)c1ccc(-c2ccc(Cc3cccs3)cc2C(=O)Nc2ccc(C(=N)N)cc2)c(C(=O)O)c1` [substituted biphenyl derivative, 36ag]: 1.51 µM. The compound `CC(C)CNC(=O)c1ccc(-c2ccc(-c3ccsc3CO)cc2C(=O)Nc2ccc(C(=N)N)cc2)c(C(=O)O)c1` [substituted biphenyl derivative, 36ai] showed a half-inhibitory concentration (IC50) of 3.04 µM.

Regarding `CC(C)CNC(=O)c1ccc(-c2ccc(-c3cccs3)cc2C(=O)Nc2ccc(C(=N)N)cc2)c(C(=O)O)c1` [substituted biphenyl derivative, 36z], the IC50 was determined as 0.24 µM. This IC50 lies about 13-fold lower than the previous one. As for `CC(C)CNC(=O)c1ccc(-c2ccc(C#CCCO)cc2C(=O)Nc2ccc(C(=N)N)cc2)c(C(=O)O)c1` [substituted biphenyl derivative, 36q], half-maximal inhibition (IC50) was put at 0.4 µM.

For the compound `CC(C)CNC(=O)c1ccc(-c2ccc(-c3cscc3CN)cc2C(=O)Nc2ccc(C(=N)N)cc2)c(C(=O)O)c1` [substituted biphenyl derivative, 36an], the IC50 amounted to 1.77 µM. Consider `C=C=Cc1ccc(-c2ccc(C(=O)NCC(C)C)cc2C(=O)O)c(C(=O)Nc2ccc(C(=N)N)cc2)c1` [substituted biphenyl derivative, 36h], for which half-maximal inhibition (IC50) required 0.56 µM. Same read-out and setting: the same measure for `CC(C)CNC(=O)c1ccc(-c2ccccc2C(=O)Nc2ccc(C(=N)N)cc2)c(C(=O)O)c1`: 0.17 µM; for `CC(C)CNC(=O)c1ccc(-c2ccc(-c3ccoc3CO)cc2C(=O)Nc2ccc(C(=N)N)cc2)c(C(=O)O)c1` [substituted biphenyl derivative, 36ao]: 0.74 µM; for `CC(C)CNC(=O)c1ccc(-c2ccc(Cc3ccccc3)cc2C(=O)Nc2ccc(C(=N)N)cc2)c(C(=O)O)c1` [substituted biphenyl derivative, 36w]: 0.57 µM.

`CCc1ccc(-c2ccc(C(=O)NCC(C)C)cc2C(=O)O)c(C(=O)Nc2ccc(C(=N)N)cc2)c1` [substituted biphenyl derivative, 36c] showed a half-maximal inhibitory concentration (IC50) of 5.99 µM. The compound `CC(C)CNC(=O)c1ccc(-c2ccc(O)cc2C(=O)Nc2ccc(C(=N)N)cc2)c(C(=O)O)c1` [substituted biphenyl derivative, 36a] returned an IC50 of 0.39 µM.
